Test results from patent US20050282208A1, “Cellular phenotype” (Cytokinetics, Inc., priority 2004, published 2005).

Experiments:
SKOV3 cells [1] = assay: Image analysis of treated SKOV3 cells: mitotic index and interphase phenotype distance from control; assay type: cell-based; settings: for Impact on mitotic index / Impact on interphase features (combined distance from normal interphase phenotype): FIG. 5A, multiple concentrations; for Impact on mitotic index: 40 uM maximum; for Impact on interphase features (combined distance from normal interphase phenotype): 40 uM maximum (Taxol 0.8 uM maximum)
From the text: In one specific example, a particular group of cellular features for characterizing the interphase phenotype of a cell could include, for all cells that are not mitotic: • the average size of cell nuclei; • the average elliptical axis ratio for nuclei; • the average kurtosis intensity of cells; • the average pixel intensity for Golgi apparatus in cells; • the average cell area; • the elliptical axis ratio for cells; • the form factor (area divided by perimeter) for cells; • the kurtosis of the intensity of tubulin; • the second moment of a cell; • the average total intensity of tubulin for each cell; • the proportion of branched (i.e. having projections) cells.
In one embodiment, after each cellular feature has been characterized, and similarly for the control group cellular features, a distance in multivariate space may be calculated. This can be the distance from a normal interphase phenotype as presented in the horizontal axis of FIG. 5A (described below). For the purposes of simplicity of discussion, if it is assumed that there are only three cellular features (a, b, c) comprising the interphase phenotype signature, and where the subscript ‘t’ refers to a feature of a treated cell and the subscript ‘c’ refers to a feature of a control cell, then the distance (L1) in multivariate space between the interphase signature of the treated cells and interphase signature of the control cells can be calculated as L1=|at−ac|+|bt−bc|+|ct−cc|, which provides the interphase metric.
FIG. 5A presents data showing that certain compounds producing the rice phenotype have very little effect on phenotypic features of interphase cells. In FIG. 5A, the vertical axis presents mitotic index, which is a measure of a compound's ability to cause mitotic arrest (thereby its ability to have a profound effect on the phenotype of mitotic cells), and the horizontal axis presents a “combined distance” from a normal interphase phenotype. The combined distance takes into account various features that characterize interphase phenotype, including those described above (i.e., the average size of cell nuclei, the average elliptical axis ratio for nuclei, the average kurtosis intensity of cells, etc.) Greater values on the horizontal axis indicate greater deviations from a control phenotype for interphase cells.
FIG. 5B is a profile graph showing that the interphase cells treated with rice compounds track interphase control cells for various interphase phenotypic features. These features include, as shown on the horizontal axis, the relative number of objects (putative cells), the average area occupied by DNA in the objects (presumably nuclei), the average axes ratio of the DNA regions in the objects, the average kurtosis of the Golgi regions, the mean intensity of the Golgi regions, average area encompassed by tubulin in the objects, the average axes ratio of tubulin in the objects, the average kurtosis of the tubulin regions, the average form factor of the tubulin regions, the average moment of the tubulin regions, the average total intensity of tubulin in each object, and the branching properties of the tubulin in the objects. Note that the cells used to generate this graph were treated with markers for Golgi (LC for labeled LC Lectin), DNA (HO for Hoechst stain), and tubulin (DM for labeled DM1-α). As shown, the rice features closely track those of the DMSO treated cells and diverge strongly from the interphase cells of Taxol treated cells.
The data of FIG. 5B were obtained by treating SKOV3 cells with many different compounds and then capturing the interphase characteristics shown in the horizontal axis using image analysis techniques. The concentration of each compound was chosen by determining what concentration of a compound produced a mitotic index between 14 and 17% after cells were treated at multiple concentrations and then imaged to capture Golgi, tubulin, and DNA data for the interphase features shown in FIG. 5B. […]

A549 cells = assay: Cell line specificity: mitotic index, number of objects and rice phenotype in A549 cells; assay type: cell-based, human; settings: wide range of concentrations, FIG. 7A
From the text: (§1) But it is apparently immune to all anti-mitotic agents.
(§2) As shown, the discrepancy exists over a wide range of concentrations. The two effects depicted in FIG. 7A are number of objects (a measure of the compound's cell killing strength) and mitotic index (fraction of the cells in a population that are in the mitotic phase).

DU145 cells = assay: Cell line specificity: mitotic index, number of objects and rice phenotype in DU145 cells; assay type: cell-based
Protocol: as §1, §2
FIG. 7B compares phenotypes of DU145 cells that were treated with 4-(3-Bromo-4-hydroxy-5-methoxy-phenyl)-6-methyl-2-oxo-1,2,3,4-tetrahydro-pyrimidine-5-carboxylic acid 1,2,2-trimethyl-propyl ester (top panel) to phenotypes of DU145 cells that were treated with a different compound (bottom panel). […] Note that the other compound produces a phenotype bearing some resemblance to the rice phenotype in SKOV3 cells. Specifically, it produces mitotic spindles that are somewhat elongated. […] This was not observed with the other compound.

SKOV3 cells [2] = assay: Image analysis of treated SKOV3 cells: mitotic index and interphase phenotype distance from control; assay type: cell-based
SKOV3 cells [3] = assay: Mitotic spindle length in tubulin marker images of SKOV3 cells; assay type: cell-based
From the text: In accordance with this invention, the length of a bipolar mitotic spindle may be measured as the separation distance between the spindle poles. To make such measurement, mitotic spindles are observed by a suitable technique such as one that employs a marker for a specific component of the spindle. For example, the technique may involve treating cells with a marker for tubulin and then imaging them under conditions that illuminate such marker. This facilitates automated identification of the mitotic spindle and measurement of its length using image analysis algorithms. […]
The data in this table was obtained for SKOV3 cells (ovarian cancer cell line) treated with DMSO (control) and a compound that produces the rice phenotype. […] In the table, “n” is the number of cells that were analyzed to generate a mean length in micrometers as indicated and associated standard deviation. Spindle lengths were measured manually in this example.
Manual measurements were taken from one image each of DMSO, rice compound 4-(3-Bromo-4-hydroxy-5-methoxy-phenyl)-6-methyl-2-oxo-1,2,3,4-tetrahydro-pyrimidine-5-carboxylic acid 1,2,2-trimethyl-propyl ester at 40 uM, and a mitotic kinesin inhibitor at 40 uM using MetaMorph Imaging Software. Lines were drawn between what was manually determined to be the ends of the mitotic spindle. […]

60 cell lines = settings: NCI panel data; cited from earlier work
[4] = wide range of concentrations, FIG. 7A
[5] = SK0V3 cell line, wide range of concentrations, FIG. 7A

COc1cc(C2NC(=O)NC(C)=C2C(=O)OC(C)C(C)(C)C)cc(Br)c1O (centres unmarked) [4-(3-Bromo-4-hydroxy-5-methoxy-phenyl)-6-methyl-2-oxo-1,2,3,4-tetrahydro-pyrimidine-5-carboxylic acid 1,2,2-trimethyl-propyl ester]
Impact on mitotic index (SKOV3 cells [1]): significant impact on mitotic index | Impact on interphase features (combined distance from normal interphase phenotype) (SKOV3 cells [1]): minimal impact on interphase features | Effect on cell number (number of objects) (A549 cells): limited effect | Effect on mitotic index (A549 cells): limited effect | Induction of the rice phenotype (DU145 cells; tubulin staining, FIG. 7B): produces a rice phenotype | Effect on cell number (number of objects) (DU145 cells; [4]): significant affects | Effect on mitotic index (DU145 cells; [4]): significant affects | Effect on cell number (number of objects) (SKOV3 cells [2]; [5]): significant affects | Effect on mitotic index (SKOV3 cells [2]; [5]): significant affects | Induction of the rice phenotype (SKOV3 cells [2]; SKOV3 cells): clearly manifest

COc1cc(C2NC(=O)N(C)C(C)=C2C(=O)OC2CCCC2)cc(Br)c1O (centres unmarked) [4-(3-Bromo-4-hydroxy-5-methoxy-phenyl)-1,6-dimethyl-2-oxo-1,2,3,4-tetrahydro-pyrimidine-5-carboxylic acid cyclopentyl ester]
Impact on mitotic index (SKOV3 cells [1]): significant impact on mitotic index | Impact on interphase features (combined distance from normal interphase phenotype) (SKOV3 cells [1]): minimal impact on interphase features | Mitotic spindle length compared to control cells (SKOV3 cells [3]; 40 uM for 24 hours, control 0.4% DMSO, FIG. 2A): significantly longer than spindles in normal cells | Organization of nuclear DNA in interphase cells compared to control (SKOV3 cells [2]; 40 uM for 24 hours, GFP-Histone, FIG. 6A): similarly organized in rice interphase cells as it is in normal interphase cells

CC(=O)O[C@H]1C(=O)[C@@]2(C)[C@H]([C@H](OC(=O)c3ccccc3)[C@]3(O)C[C@H](OC(=O)[C@H](O)[C@@H](NC(=O)c4ccccc4)c4ccccc4)C(C)=C1C3(C)C)[C@]1(OC(C)=O)CO[C@@H]1C[C@@H]2O [Taxol, reference compound]
Impact on interphase features (combined distance from normal interphase phenotype) (SKOV3 cells [1]): widely separated from the control interphase phenotype | Interphase phenotypic features profile compared to control (SKOV3 cells [1]; FIG. 5B, SKOV3 cells, concentrations inducing approximately 15% mitotic arrest): vary to a greater degree | Production of elongated metaphase spindles (SKOV3 cells [3]): do not produce elongated metaphase spindles | Effect on cell number (number of objects) (A549 cells): robust response | Effect on mitotic index (A549 cells): robust response | Potency differences between cell types (60 cell lines): over 3 orders of magnitude
